Data on one substance can be found in patent US9889184B2 (priority 2008, dated 2018).

Broadly, the IC50 is the concentration at which inhibition is half-maximal. Read a high IC50 as lower potency.

One experiment deals with Fov. Put plainly: Effect of metal ions on NaD1 activity against Fov. The note with it: NaD1 10 μM, growth of Fov. The format is cell-based, Fusarium oxysporum f. sp. vasinfectum. The source says: (§1) Antifungal activity against Fusarium oxysporum f. sp. vasinfectum (Fov, Australian isolate VCG01111 isolated from cotton; from Wayne O'Neill, Farming Systems Institute, DPI, Queensland, Australia), Thielaviopsis basicola (gift from David Nehl, NSW DPI, Narrabri, Australia), Verticillium dahliae (from Helen McFadden, CSIRO Plant Industry, Black Mountain, Australia), Leptosphaeria maculans (from Barbara Howlett, University of Melbourne, Victoria, Australia) and Aspergillus nidulans (from Michael Hynes, University of Melbourne) was assessed essentially as described in Broekaert et al, 1990. Spores were isolated from sporulating cultures growing in either half-strength potato dextrose broth (PDB) (Fov and T. basicola), Czapeck-Dox Broth (V. dahliae) (Difco Laboratories) or 10% (v/v) clarified V8 medium (L. maculans and A. nidulans) by filtration through sterile muslin. Spore concentrations were determined using a hemocytometer and adjusted to 5×10^4 spores/mL in the appropriate growth medium. Spore suspensions (80 μL) were added to the wells of sterile 96-well flat-bottomed microtitre plates along with 20 μL of filter-sterilized (0.22 μm syringe filter; Millipore) NaD1, or water to give final protein concentrations of 0-10 μM. The plates were shaken briefly and placed in the dark at 25° C. without shaking until the optical density at 595 nm of the water control reached approximately 0.2 (24-72 h depending on growth rate). Hyphal growth was estimated by measuring the optical density at 595 nm using a microtitre plate reader (SpectraMax Pro M2; Molecular Devices). Each test was performed in quadruplicate.
The activity of NaD1 against Fov was examined as described with varying concentrations of CaCl2 (0.1, 0.2, 0.5, 1.0 and 2.0 μM) or MgCl2 (1.0, 2.0, 10, 20 and 50 μM) present in the medium to determine the effects of divalent cations on NaD1 activity.

Experiment [1] has as its system Fusarium oxysporum f. sp. vasinfectum (Fov). Kind of experiment: Growth inhibition of Fov by NaD1 (microtitre OD595). The format is cell-based. As for the experimental part:
Lyophilized NaD1 (500 μg) was dissolved in 400 μL of stock buffer (200 mM Tris-HCl pH 8.0, 2 mM EDTA, 6 M guanidine-HCl, 0.02% [v/v] Tween-20). Reduction buffer (stock buffer with 15 mM dithiothreitol [DTT]) was added (44 μL) followed by a 4.5 h incubation at 40° C. The reaction mixture was cooled to RT before iodoacetic acid (0.5 M in 1 M NaOH, 55 μL) was added and the incubation continued in the dark for 30 min at RT. A Nanosep omega (Registered) spin column (3K molecular weight cut off, PALL Life Sciences) was used to remove salts, DTT and iodoacetic acid and the protein concentration was determined using the BCA protein assay (Pierce). The effect of reduced and alkylated NaD1 (NaD1R&A) on the growth of Fusarium oxysporum (Fov) was measured as described herein.
as §1

Consider “NaD1: plant defensin isolated from floral tissue of Nicotiana alata (SEQ ID NO:12) (RECKTESNTFPGICITKPPCRKACISEKFTDGHCSKILRRCLCTKPC; Nicotiana alata (NaD1))”, for which, in the experiment with Fov, the “Ca2+ more antagonistic than Mg2+” value is given as “greater than 20 times”, the “CaCl2 concentration giving complete inactivation of NaD1” value is less than 2 mM and the “MgCl2 concentration giving complete inactivation of NaD1” value is reported as 50 mM. The growth retarded in experiment [1] (1 μM NaD1, Fov) is 50%. Moreover, in experiment [1] (5 μM NaD1, Fov), the growth inhibited entry is on record as “more than 80%”. Also, the “growth inhibition of Fov by NaD1 with ROS scavenger” value in experiment [1] (10 mM ascorbic acid) is “nor did the presence of 10 mM ascorbic acid affect growth inhibition”. This substance returned an IC50 in experiment [1] (Fusarium oxysporum f. sp. vasinfectum) of 1000 nM. Further, in experiment [1] (NaD1 0.1 μM), the “growth inhibition of Fov” value was “no growth inhibition was observed”. Further, the “growth inhibition of Fov” value in experiment [1] (NaD1 concentration used for microscopy (10 μM)) is given as greater than 90%.
